In article PMC8115619, “Generation of a chemical genetic model for JAK3” (Scientific Reports, 2021):

Columns and labels:
Src = Src (Homo sapiens, UniProt P12931); experiment: Selectivity screen Src; assay type: biochemical; details: 1 µM inhibitor, mean
Experimental: (§1) For the in vitro kinase assay, JAK3 (5–20 mU diluted in 50 mM Tris pH 7.5, 0.1 mM EGTA, 0.05% β-mercaptoethanol, 1 mg/ml BSA) was assayed against PDKtide ([…]) in a final volume of 25.5 µl containing 50 mM Tris pH 7.5, 0.1 mM EGTA, 0.05% β-mercaptoethanol, 100 µM substrate peptide, 10 mM magnesium acetate and 0.02 mM [33P-γ-ATP] (50–1000 cpm/pmole) and incubated for 30 min at room temperature. Assays were started by the addition of the ATP and stopped by addition of 5 µl of 0.5 M (3%) orthophosphoric acid and then harvested onto P81 Unifilter plates with a wash buffer of 50 mM orthophosphoric acid. To determine the Km for ATP, assays were run using 1, 5, 10, 20, 50, 100, 200, 400, 500 μM ATP and Km derived by non-linear regression fitting to the Michaelis–Menten equation v = Vmax[S]/(Km + [S]). IC50 values for inhibitors via non-linear regression using a parameter model: Y = Bottom + (Top–Bottom)/(1 + (IC50/X)^HillSlope). Non-linear regression was carried out in Prism (version 8). In vitro selectivity screen was carried out as described previously.

BRK = BRK (Homo sapiens, UniProt Q13882); experiment: Selectivity screen BRK; assay type: biochemical; details: 1 µM inhibitor, mean
Sequence of BRK (Q13882 whole entry): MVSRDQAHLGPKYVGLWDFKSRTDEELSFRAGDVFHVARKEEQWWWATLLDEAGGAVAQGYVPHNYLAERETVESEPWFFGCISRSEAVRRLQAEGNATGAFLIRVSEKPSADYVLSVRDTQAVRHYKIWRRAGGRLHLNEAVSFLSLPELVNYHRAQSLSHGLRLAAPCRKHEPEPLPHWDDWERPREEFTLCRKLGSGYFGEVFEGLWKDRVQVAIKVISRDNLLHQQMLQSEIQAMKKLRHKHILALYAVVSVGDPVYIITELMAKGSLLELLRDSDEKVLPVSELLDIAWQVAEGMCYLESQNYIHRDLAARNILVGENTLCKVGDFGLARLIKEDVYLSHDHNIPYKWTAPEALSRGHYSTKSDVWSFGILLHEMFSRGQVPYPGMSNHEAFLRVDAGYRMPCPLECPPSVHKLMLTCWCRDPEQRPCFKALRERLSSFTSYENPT

EIF2AK3 = EIF2AK3 (Homo sapiens, UniProt Q9NZJ5); experiment: Selectivity screen EIF2AK3; assay type: biochemical; details: 1 µM inhibitor, mean
Experimental: as §1

Aurora B = Aurora B (Homo sapiens, UniProt Q96GD4); experiment: Selectivity screen Aurora B; assay type: biochemical; details: 1 µM inhibitor, mean
Sequence of Aurora B (Q96GD4 whole entry): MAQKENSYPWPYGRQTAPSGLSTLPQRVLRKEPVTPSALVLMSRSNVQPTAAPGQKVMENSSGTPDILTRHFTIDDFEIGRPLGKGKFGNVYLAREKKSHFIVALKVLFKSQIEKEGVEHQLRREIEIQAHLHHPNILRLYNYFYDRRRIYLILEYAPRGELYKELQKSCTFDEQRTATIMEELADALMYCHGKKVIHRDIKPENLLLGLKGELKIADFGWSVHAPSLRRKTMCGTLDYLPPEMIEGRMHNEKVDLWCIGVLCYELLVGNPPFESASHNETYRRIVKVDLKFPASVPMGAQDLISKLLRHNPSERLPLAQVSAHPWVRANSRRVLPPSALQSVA

PAK4 = PAK4 (Homo sapiens, UniProt O96013); experiment: Selectivity screen PAK4; assay type: biochemical; details: 1 µM inhibitor, mean
Experimental: as §1

PAK2 = PAK2 (Homo sapiens, UniProt Q13177); experiment: Selectivity screen PAK2; assay type: biochemical; details: 1 µM inhibitor, mean
Sequence of PAK2 (Q13177 whole entry): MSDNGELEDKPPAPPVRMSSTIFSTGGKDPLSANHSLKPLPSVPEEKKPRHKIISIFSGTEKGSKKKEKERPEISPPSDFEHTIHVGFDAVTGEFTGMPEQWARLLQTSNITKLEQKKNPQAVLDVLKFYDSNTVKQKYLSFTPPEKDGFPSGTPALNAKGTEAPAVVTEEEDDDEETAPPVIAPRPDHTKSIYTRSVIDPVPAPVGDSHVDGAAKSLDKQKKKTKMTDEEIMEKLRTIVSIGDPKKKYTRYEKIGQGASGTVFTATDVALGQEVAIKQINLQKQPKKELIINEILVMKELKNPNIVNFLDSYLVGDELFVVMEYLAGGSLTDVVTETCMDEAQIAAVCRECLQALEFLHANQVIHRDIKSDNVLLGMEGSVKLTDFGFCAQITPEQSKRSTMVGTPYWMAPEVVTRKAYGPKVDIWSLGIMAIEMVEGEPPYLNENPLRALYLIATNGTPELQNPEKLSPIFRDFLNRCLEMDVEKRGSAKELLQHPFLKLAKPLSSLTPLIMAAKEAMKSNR
Experimental: as §1

OSR1 = OSR1 (Homo sapiens, UniProt O95747); experiment: Selectivity screen OSR1; assay type: biochemical; details: 1 µM inhibitor, mean
Experimental: as §1

ULK1 = ULK1 (Homo sapiens, UniProt O75385); experiment: Selectivity screen ULK1; assay type: biochemical; details: 1 µM inhibitor, mean
Experimental: as §1

MELK = MELK (Homo sapiens, UniProt Q14680); experiment: Selectivity screen MELK; assay type: biochemical; details: 1 µM inhibitor, mean
Experimental: as §1

S6K1 = S6K1 (Homo sapiens, UniProt P23443); experiment: Selectivity screen S6K1; assay type: biochemical; details: 1 µM inhibitor, mean
Experimental: as §1

DAPK1 = DAPK1 (Homo sapiens, UniProt P53355); experiment: Selectivity screen DAPK1; assay type: biochemical; details: 1 µM inhibitor, mean
Experimental: as §1

NEK6 = NEK6 (Homo sapiens, UniProt Q9HC98); experiment: Selectivity screen NEK6; assay type: biochemical; details: 1 µM inhibitor, mean
Sequence of NEK6 (Q9HC98 whole entry): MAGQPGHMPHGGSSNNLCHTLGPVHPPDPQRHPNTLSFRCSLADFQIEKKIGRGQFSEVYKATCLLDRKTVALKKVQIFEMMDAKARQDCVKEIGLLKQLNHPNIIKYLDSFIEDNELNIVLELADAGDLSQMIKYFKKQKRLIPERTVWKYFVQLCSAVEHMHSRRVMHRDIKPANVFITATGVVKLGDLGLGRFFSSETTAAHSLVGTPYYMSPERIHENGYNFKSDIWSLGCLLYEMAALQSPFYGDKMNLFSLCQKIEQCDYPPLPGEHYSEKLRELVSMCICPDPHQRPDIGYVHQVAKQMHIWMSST
Experimental: as §1

ASK1 = ASK1 (Homo sapiens, UniProt Q99683); experiment: Selectivity screen ASK1; assay type: biochemical; details: 1 µM inhibitor, mean
Sequence of ASK1 (Q99683 whole entry): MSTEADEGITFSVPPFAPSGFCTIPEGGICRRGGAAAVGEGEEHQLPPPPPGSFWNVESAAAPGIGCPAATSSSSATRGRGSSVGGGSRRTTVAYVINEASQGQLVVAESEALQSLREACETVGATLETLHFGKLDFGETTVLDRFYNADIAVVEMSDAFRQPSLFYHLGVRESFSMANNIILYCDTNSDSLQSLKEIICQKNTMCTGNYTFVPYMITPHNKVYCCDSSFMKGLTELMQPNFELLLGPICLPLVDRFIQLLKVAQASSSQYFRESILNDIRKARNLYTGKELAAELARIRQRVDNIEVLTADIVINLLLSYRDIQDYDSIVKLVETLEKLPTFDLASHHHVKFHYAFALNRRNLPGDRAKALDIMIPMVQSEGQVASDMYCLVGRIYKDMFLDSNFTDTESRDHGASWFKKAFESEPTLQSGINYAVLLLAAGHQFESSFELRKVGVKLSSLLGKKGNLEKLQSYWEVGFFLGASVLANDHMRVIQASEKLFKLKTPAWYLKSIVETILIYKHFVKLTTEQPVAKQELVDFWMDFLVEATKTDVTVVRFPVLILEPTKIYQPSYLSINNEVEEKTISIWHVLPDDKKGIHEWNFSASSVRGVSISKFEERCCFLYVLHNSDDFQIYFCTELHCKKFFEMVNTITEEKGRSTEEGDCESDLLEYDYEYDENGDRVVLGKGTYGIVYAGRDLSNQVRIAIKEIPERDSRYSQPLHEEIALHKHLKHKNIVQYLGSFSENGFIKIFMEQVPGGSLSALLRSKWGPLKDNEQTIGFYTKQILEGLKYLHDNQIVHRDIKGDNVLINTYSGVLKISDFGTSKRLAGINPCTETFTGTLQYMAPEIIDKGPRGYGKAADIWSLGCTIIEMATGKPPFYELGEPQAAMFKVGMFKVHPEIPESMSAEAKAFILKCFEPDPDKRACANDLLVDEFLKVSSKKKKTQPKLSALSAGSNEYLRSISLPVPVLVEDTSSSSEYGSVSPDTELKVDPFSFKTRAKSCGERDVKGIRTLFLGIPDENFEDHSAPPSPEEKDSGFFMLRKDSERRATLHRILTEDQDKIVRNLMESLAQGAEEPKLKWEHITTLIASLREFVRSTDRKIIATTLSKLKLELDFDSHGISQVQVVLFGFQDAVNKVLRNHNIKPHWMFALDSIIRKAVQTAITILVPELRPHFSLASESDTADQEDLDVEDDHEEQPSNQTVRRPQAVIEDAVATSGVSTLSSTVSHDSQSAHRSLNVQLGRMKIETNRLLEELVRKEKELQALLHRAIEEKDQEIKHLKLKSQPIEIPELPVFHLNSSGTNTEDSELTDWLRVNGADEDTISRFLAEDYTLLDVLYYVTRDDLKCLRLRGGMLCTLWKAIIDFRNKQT

MKK6 = MKK6 (Homo sapiens, UniProt P52564); experiment: Selectivity screen MKK6; assay type: biochemical; details: 1 µM inhibitor, mean
Sequence of MKK6 (P52564 whole entry): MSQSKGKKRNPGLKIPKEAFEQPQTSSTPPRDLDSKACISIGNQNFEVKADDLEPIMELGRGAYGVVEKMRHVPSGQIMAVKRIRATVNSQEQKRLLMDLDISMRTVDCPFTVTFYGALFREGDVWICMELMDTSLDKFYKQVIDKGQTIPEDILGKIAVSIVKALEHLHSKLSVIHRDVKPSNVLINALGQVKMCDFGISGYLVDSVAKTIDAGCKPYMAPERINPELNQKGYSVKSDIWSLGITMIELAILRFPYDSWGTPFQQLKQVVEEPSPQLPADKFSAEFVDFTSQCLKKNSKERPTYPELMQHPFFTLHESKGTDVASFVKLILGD
Experimental: as §1

MAP4K3 = MAP4K3 (Homo sapiens, UniProt Q8IVH8); experiment: Selectivity screen MAP4K3; assay type: biochemical; details: 1 µM inhibitor, mean
Experimental: as §1

PKA = PKA (Homo sapiens, UniProt P17612); experiment: Selectivity screen PKA; assay type: biochemical; details: 1 µM inhibitor, mean
Experimental: as §1

MST2 = MST2 (Homo sapiens, UniProt Q13188); experiment: Selectivity screen MST2; assay type: biochemical; details: 1 µM inhibitor, mean
Experimental: as §1

EF2K = EF2K (Homo sapiens, UniProt O00418); experiment: Selectivity screen EF2K; assay type: biochemical; details: 1 µM inhibitor, mean
Experimental: as §1

PRAK = PRAK (Homo sapiens, UniProt Q8IW41); experiment: Selectivity screen PRAK; assay type: biochemical; details: 1 µM inhibitor, mean
Experimental: as §1

SmMLCK = SmMLCK (Homo sapiens, UniProt Q15746); experiment: Selectivity screen SmMLCK; assay type: biochemical; details: 1 µM inhibitor, mean
Experimental: as §1

CK1δ = CK1δ (Homo sapiens, UniProt P48730); experiment: Selectivity screen CK1δ; assay type: biochemical; details: 1 µM inhibitor, mean
Experimental: as §1

EPH-B4 = EPH-B4 (Homo sapiens, UniProt P54760); experiment: Selectivity screen EPH-B4; assay type: biochemical; details: 1 µM inhibitor, mean
Sequence of EPH-B4 (P54760 16-987): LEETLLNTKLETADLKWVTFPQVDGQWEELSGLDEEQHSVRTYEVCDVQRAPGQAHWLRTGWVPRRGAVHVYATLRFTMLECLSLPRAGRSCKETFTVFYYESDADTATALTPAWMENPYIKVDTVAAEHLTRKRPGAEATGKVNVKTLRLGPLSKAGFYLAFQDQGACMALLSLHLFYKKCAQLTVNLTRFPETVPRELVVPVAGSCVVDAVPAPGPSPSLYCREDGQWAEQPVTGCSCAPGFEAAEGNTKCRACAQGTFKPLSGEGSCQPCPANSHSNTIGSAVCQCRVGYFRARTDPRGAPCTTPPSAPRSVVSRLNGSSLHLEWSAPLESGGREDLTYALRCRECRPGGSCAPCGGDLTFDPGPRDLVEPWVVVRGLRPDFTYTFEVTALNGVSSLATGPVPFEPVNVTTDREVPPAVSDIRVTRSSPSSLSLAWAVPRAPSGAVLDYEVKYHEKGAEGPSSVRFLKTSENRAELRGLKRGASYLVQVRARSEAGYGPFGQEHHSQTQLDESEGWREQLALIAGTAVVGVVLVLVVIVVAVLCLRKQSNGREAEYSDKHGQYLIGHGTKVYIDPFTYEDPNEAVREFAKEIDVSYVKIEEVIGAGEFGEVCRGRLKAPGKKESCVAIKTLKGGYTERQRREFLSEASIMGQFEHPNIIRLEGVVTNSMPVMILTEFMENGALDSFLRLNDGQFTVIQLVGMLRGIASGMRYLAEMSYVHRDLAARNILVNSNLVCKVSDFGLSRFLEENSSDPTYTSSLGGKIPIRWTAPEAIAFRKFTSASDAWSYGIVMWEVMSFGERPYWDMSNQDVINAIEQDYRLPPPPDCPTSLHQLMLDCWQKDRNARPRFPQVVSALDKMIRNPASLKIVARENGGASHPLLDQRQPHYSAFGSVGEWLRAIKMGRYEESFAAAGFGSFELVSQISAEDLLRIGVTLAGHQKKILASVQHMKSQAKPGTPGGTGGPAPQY
Experimental: as §1

TESK1 = TESK1 (Homo sapiens, UniProt Q15569); experiment: Selectivity screen TESK1; assay type: biochemical; details: 1 µM inhibitor, mean
Experimental: as §1

SRPK1 = SRPK1 (Homo sapiens, UniProt Q96SB4); experiment: Selectivity screen SRPK1; assay type: biochemical; details: 1 µM inhibitor, mean
Experimental: as §1

EPH-A2 = EPH-A2 (Homo sapiens, UniProt P29317); experiment: Selectivity screen EPH-A2; assay type: biochemical; details: 1 µM inhibitor, mean
Experimental: as §1

IRR = IRR (Homo sapiens, UniProt P14616); experiment: Selectivity screen IRR; assay type: biochemical; details: 1 µM inhibitor, mean
Experimental: as §1

VEG-FR = VEG-FR (Homo sapiens, UniProt P17948); experiment: Selectivity screen VEG-FR; assay type: biochemical; details: 1 µM inhibitor, mean
Experimental: as §1

EPH-B1 = EPH-B1 (Homo sapiens, UniProt P54762); experiment: Selectivity screen EPH-B1; assay type: biochemical; details: 1 µM inhibitor, mean
Experimental: as §1

[1] = system: IL-4 induced STAT6 phosphorylation in JAK3 Cys905Ser knockin BMDMs; experiment: Inhibitor washout, IL-4 induced STAT6 phosphorylation, JAK3 Cys905Ser knockin BMDMs; assay type: cell-based, mouse; details: inhibitor 2 h, washed 3 times in PBS; 10 μM TL6-144, 100 μM PF-06651600
Experimental: To test this, cells were treated with a high concentration of inhibitor for 2 h before being washed 3 times in PBS and then incubated in media without inhibitor for 0.5 to 24 h. […] To confirm this was not the case, similar experiments were done in JAK3 Cys905Ser knockin cells.
BMDMs were isolated from wild type and JAK3 Cys905Ser knockin mice. […] The macrophages were then either stimulated with 10 ng/ml IL-4 for 30 min or washed 3 times in PBS and then incubated in media without inhibitor for the indicated times. The cells were then stimulated with IL-4 for 30 min and STAT6 phosphorylation determined by immunoblotting using levels of ERK1/2 as a loading control.
Briefly, bone marrow was flushed in PBS from the femurs and tibias of mice. Cells were cultured on bacterial grade plastic for 7 days at 37 °C, 5% CO2. […]
Cells were lysed directly into SDS sample buffer and aliquots run on 10% polyacrylamide gels using standard methods[51]. Proteins were transferred onto nitrocellulose membranes, and specific proteins were detected by immunoblotting. […] Bands were detected using Clarity ECL reagents from BioRad and imaged on a Licor Odyssey Fc system. Quantification was carried out using Licor Image Studio software. After correction for the ERK1/2 levels to account for loading differences, percentage inhibition was calculated relative to the IL-4 stimulated condition.

Sequence of Src (P12931 whole entry): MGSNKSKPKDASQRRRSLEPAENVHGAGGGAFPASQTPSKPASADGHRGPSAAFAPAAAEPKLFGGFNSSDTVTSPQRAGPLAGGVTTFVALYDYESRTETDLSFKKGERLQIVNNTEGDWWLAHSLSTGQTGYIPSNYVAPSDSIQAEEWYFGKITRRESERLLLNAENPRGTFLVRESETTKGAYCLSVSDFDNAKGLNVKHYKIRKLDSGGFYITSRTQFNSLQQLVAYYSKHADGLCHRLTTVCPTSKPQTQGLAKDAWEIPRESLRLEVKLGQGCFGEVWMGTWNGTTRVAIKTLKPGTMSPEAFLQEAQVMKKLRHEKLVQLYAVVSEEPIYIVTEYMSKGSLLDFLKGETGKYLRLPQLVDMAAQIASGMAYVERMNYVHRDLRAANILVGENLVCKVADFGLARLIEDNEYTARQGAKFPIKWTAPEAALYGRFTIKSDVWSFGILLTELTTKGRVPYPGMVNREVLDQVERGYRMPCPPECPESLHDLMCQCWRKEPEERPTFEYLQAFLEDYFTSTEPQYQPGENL

| Structure (SMILES) | activity remaining in the presence of the inhibitor: Src (Src) | activity remaining in the presence of the inhibitor: BRK (BRK) | activity remaining in the presence of the inhibitor: EIF2AK3 (EIF2AK3) | activity remaining in the presence of the inhibitor: Aurora B (Aurora B) | activity remaining in the presence of the inhibitor: PAK4 (PAK4) | activity remaining in the presence of the inhibitor: PAK2 (PAK2) | activity remaining in the presence of the inhibitor: OSR1 (OSR1) | activity remaining in the presence of the inhibitor: ULK1 (ULK1) | activity remaining in the presence of the inhibitor: MELK (MELK) | activity remaining in the presence of the inhibitor: S6K1 (S6K1) | activity remaining in the presence of the inhibitor: DAPK1 (DAPK1) | activity remaining in the presence of the inhibitor: NEK6 (NEK6) | activity remaining in the presence of the inhibitor: ASK1 (ASK1) | activity remaining in the presence of the inhibitor: MKK6 (MKK6) | activity remaining in the presence of the inhibitor: MAP4K3 (MAP4K3) | activity remaining in the presence of the inhibitor: PKA (PKA) | activity remaining in the presence of the inhibitor: MST2 (MST2) | activity remaining in the presence of the inhibitor: EF2K (EF2K) | activity remaining in the presence of the inhibitor: PRAK (PRAK) | activity remaining in the presence of the inhibitor: SmMLCK (SmMLCK) | further results |
| --- | --- | --- | --- | --- | --- | --- | --- | --- | --- | --- | --- | --- | --- | --- | --- | --- | --- | --- | --- | --- | --- |
| C=CC(=O)Nc1cccc(CNc2nc(Nc3ccc(N4CCOCC4)cc3)ncc2Cl)c1 [TL8-52] | 53 | 94 | 90 | 13 | 85 | 75 | 98 | 48 | 66 | 87 | 100 | 103 | 93 | 105 | 55 | 74 | 48 | 105 | 113 | 98 | activity remaining in the presence of the inhibitor: CK1δ (CK1δ): 110; activity remaining in the presence of the inhibitor: EPH-B4 (EPH-B4): 104; activity remaining in the presence of the inhibitor: TESK1 (TESK1): 91; activity remaining in the presence of the inhibitor: SRPK1 (SRPK1): 97; activity remaining in the presence of the inhibitor: EPH-A2 (EPH-A2): 87; activity remaining in the presence of the inhibitor: IRR (IRR): 75; activity remaining in the presence of the inhibitor: VEG-FR (VEG-FR): 6; activity remaining in the presence of the inhibitor: EPH-B1 (EPH-B1): 75 |
| C=CC(=O)Nc1cccc(CNc2nc(Nc3ccc(N4CCN(C)CC4)cc3OC)ncc2Cl)c1 [TL6-144] | 74 | 94 | 98 | 81 | 99 | 81 | 47 | 65 | 69 | 90 | 94 | 97 | 108 | 104 | 83 | 104 | 83 | 95 | 93 | 62 | inhibition of IL-4 induced STAT6 phosphorylation after inhibitor washout, JAK3 Cys905Ser knockin BMDMs [1]: complete loss of inhibition; activity remaining in the presence of the inhibitor: CK1δ (CK1δ): 83; activity remaining in the presence of the inhibitor: EPH-B4 (EPH-B4): 83; activity remaining in the presence of the inhibitor: TESK1 (TESK1): 99; activity remaining in the presence of the inhibitor: SRPK1 (SRPK1): 91; activity remaining in the presence of the inhibitor: EPH-A2 (EPH-A2): 72; activity remaining in the presence of the inhibitor: IRR (IRR): 56; activity remaining in the presence of the inhibitor: VEG-FR (VEG-FR): 39; activity remaining in the presence of the inhibitor: EPH-B1 (EPH-B1): 85 |
| C=CC(=O)N1C[C@H](Nc2ncnc3[nH]ccc23)CC[C@@H]1C [PF-06651600, 1-((2S,5R)-5-((7H-Pyrrolo[2,3-d]pyrimidin-4-yl)amino)-2-methylpiperidin-1-yl)prop-2-en-1-one, reference compound] |  |  |  |  |  |  |  |  |  |  |  |  |  |  |  |  |  |  |  |  | inhibition of IL-4 induced STAT6 phosphorylation after inhibitor washout, JAK3 Cys905Ser knockin BMDMs [1]: not retained at any time post washout |
